Test results taken from US20060166996A1, “Phthalazine derivatives as phosphodiesterase 4 inhibitors” (Zambon Group S.P.A., priority 2002, published 2006).
In brackets after ≈: the same amount, converted by molar mass.

Legend:
[1] = Solubility test by HPLC in PBS pH 7.4; format: physicochemical; conditions: for solubility kinetic: PBS (phosphate buffer saline), aqueous buffer, kinetic from dmso stock
Procedure: HPLC method used to test the solubility.
Solubility test was performed by HPLC analysis (column 4.6×15 mm) water/0.1% TFA —CH3CN/0.06% TFA gradient) against standard.
A […] solution of the substance dissolved in DMSO was prepared.
In order to prepare the sample 190 μl of PBS (Phosphate Buffer Saline, pH 7.4) were added to 10 μl of the above solution; instead (while) in order to prepare the standard 190 μl of DMSO to other 10 μl of solution were added.

PDE 4 enzyme = test system: T1, PDE 4 enzyme; experiment: PDE 4 enzyme inhibition (SPA); format: biochemical; conditions: for % at 10^−7: PDE 4 from U937 cell line
T1 construct: % at 10^−7; other: at 10^−7; PDE 4 from U937 cell line; other: PDE 4 isolated from U937 cell line; SPA with 3H-cAMP
Procedure: a) PDE 4 Enzyme Purification
PDE 4 enzyme was isolated from U937 cell line according to the method of Nielson et al. (J. Allergy Clin. Immunol. 1990, vol. 86, pages 801-807) partially modified for the FPLC technique (Fast Protein Liquid Chromatography).
U-937cell line (Istituto Zooprofilattico Sperimentale, Brescia, Italy) was maintained in RPMI 1640, with 10% foetal calf serum and 2 mM glutamine, at a cell density between 1×10^6 and 8×10^6 cells per ml in an incubator at 37° C. with 5% CO2.
U937 suspension was homogenised in a buffer containing 10 mM TRIS (tri-(hydroxymethyl)-aminomethane), 5 mM MgCl2, 4 mM EGTA (ethyleneglycol-bis-(β-aminoethylether)-N,N,N′N′-tetra-acetic acid), 5 mM […]-mercaptoethanol, 1 μM leupeptin, 1 μM pepstatin, 1% TRITON x-100, and 100 μM phenylmethyl sulfonyl fluoride (PMSF) at pH 7.8.
The homogenate was centrifuged and the supernatant was used for the purification of the PDE 4 enzyme; it was seeded on a column connected to a biologic chromatography system (FPLC, BIO RAD).
PDE 4 enzyme was eluted with a linear gradient, from 0.05 M to 1 M of sodium acetate, and elution fractions were collected for PDE4 activity assay.
The fractions containing PDE4 activity were collected and, after an overnight dialysis against water to remove sodium acetate, were concentrated to 30% volume with an Amicon filtration system (using YM10 membrane filter).
Ethylene glycol (30% v/v) was added and the sample was stored at −20° C. in a single aliquot until the use.
PDE 4 activity assay was performed using Scintillation Proximity Assay (SPA) Amershan kit consisting of tracer ^3H-cAMP, PDE assay buffer (10×solution: 500 mM TRIS/HCl pH 7.5, 83 mM MgCl2 and 17 mM EGTA) and Yttrium SPA PDE beads (containing 18 mM zinc sulphate).
The radioactivity of the beads was measured using a scintillation counter (Packard model MINAXI β TRI-CARB 4000 SERIES).
The IC50 values were calculated from concentration-inhibition curves by non linear regression analysis using the program ORIGIN 3.5 (MICROCAL SOFTWARE INC.) and each fitting was the mean±SEM of 3 experiments using different PDE 4 preparations.

[2] = PBS pH 7.4, HPLC, compounds of WO 00/05218
[3] = PBS pH 7.4, HPLC against standard, compounds of formula I

Row | Molecule | % at 10^−7 (PDE 4 enzyme) [% at 10^−7] | solubility kinetic [1, 3] [µg/mL] | Sol. [1, 3] [µM] | IC50 (PDE 4 enzyme; PDE 4 isolated from U937 cell line, SPA with 3H-cAMP) [nM] | Sol. [1, 2] [µM]
1 | 3-[4-(3,5-dichloro-pyridin-4-ylmethyl)-7-methoxy-phthalazin-1-yl]-5-methanesulfonylamino-benzoic Acid [Compound 6] | – | – | – | – | <1
2 | 5-[4-(3,5-dichloro-pyridin-4-ylmethyl)-7-methoxy-phthalazin-1-yl]-2-methoxy-benzoic Acid [Compound 4] | – | – | – | – | 37
3 | COc1ccc2c(Cc3c(Cl)cncc3Cl)nnc(-c3ccc(C(=O)O)cc3)c2c1 [Compound 1, 4-[4-(3,5-dichloro-pyridin-4-ylmethyl)-7-methoxy-phthalazin-1-yl]-benzoic Acid] | 25 | 218 (≈ 495 µM) | 495.45 | – | –
4 | COc1ccc2c(Cc3c(Cl)cncc3Cl)nnc(-c3cc(C(=O)O)cc([N+](=O)[O-])c3)c2c1 [Compound 3, 3-[4-(3,5-dichloro-pyridin-4-ylmethyl)-7-methoxy-phthalazin-1-yl]-5-nitro-benzoic Acid] | 47 | 298 (≈ 614 µM) | 614.43 | – | –
5 | COc1ccc2c(Cc3c(Cl)cncc3Cl)nnc(-c3cc(C(=O)O)ccc3OC)c2c1 [Compound 5, 3-[4-(3,5-dichloro-pyridin-4-ylmethyl)-7-methoxy-phthalazin-1-yl]-4-methoxy-benzoic Acid] | – | 230 (≈ 489 µM) | 489.36 | 91.3 | –
6 | COc1cc(C(=O)O)cc(-c2nnc(Cc3c(Cl)cncc3Cl)c3ccc(OC)cc23)c1 [Compound 7, 3-[4-(3,5-dichloro-pyridin-4-ylmethyl)-7-methoxy-phthalazin-1-yl]-5-methoxy-benzoic Acid] | – | 235 (≈ 500 µM) | 500.00 | – | –

More lines, main results first:

Row | % at 10^−7 (PDE 4 enzyme) [% at 10^−7] | solubility kinetic [1, 3] [µg/mL] | Sol. [1, 3] [µM] | IC50 (PDE 4 enzyme; PDE 4 isolated from U937 cell line, SPA with 3H-cAMP) [nM] | Molecule | Sol. [1, 2] [µM]
7 | – | 226 (≈ 481 µM) | 480.85 | – | COc1ccc2c(Cc3c(Cl)cncc3Cl)nnc(-c3ccc(OC)c(C(=O)O)c3)c2c1 [Compound 4, 5-[4-(3,5-dichloro-pyridin-4-ylmethyl)-7-methoxy-phthalazin-1-yl]-2-methoxy-benzoic Acid] | –
8 | – | 271 (≈ 508 µM) | 508.44 | – | COc1ccc2c(Cc3c(Cl)cncc3Cl)nnc(-c3cc(NS(C)(=O)=O)cc(C(=O)O)c3)c2c1 [Compound 6, 3-[4-(3,5-dichloro-pyridin-4-ylmethyl)-7-methoxy-phthalazin-1-yl]-5-methanesulfonylamino-benzoic Acid] | –
9 | 14 | 202 (≈ 468 µM) | 468.68 | – | COc1ccc2c(Cc3c(Cl)cncc3Cl)nnc(-c3nc(C(=O)O)co3)c2c1 [Compound 9, 2-[4-(3,5-dichloro-pyridin-4-ylmethyl)-7-methoxy-phthalazin-1-yl]-oxazole-4-carboxylic Acid] | –
